Columns and labels:
PARG = target: T1, PARG (Homo sapiens, UniProt Q86W56); experiment: PAR digestion assay (dot blotting) for PARG inhibition; assay type: biochemical; conditions: 0.25 nM PARG incubated with 10 μM PAR for 20 min at room temperature; dot blotting with anti-PAR antibody
T1 construct: made in house; host or cells: Sf9 insect cells
Description: Compounds (FIG. 4) were synthesized to examine the efficacy of PARG inhibition by dot blotting assay (Example 5). 0.25 nM PARG was incubated with 10 μM PAR for 20 min at room temperature with or without inhibitors. PAR-digestion results were analyzed using dot blotting with anti-PAR antibody.
The array includes compounds in FIG. 4 (PG002 (“002”), PG006 (“006”), PG008 (“008”), PG010 (“010”), and PG021(“021”)), PC (positive control, PAR only), NC (negative control, no inhibitor), and COH34 (“34”, positive control for PARG inhibition). In FIG. 5A, 0.3X means 3-fold dilution.
Recombinant PARG protein from Sf9 cells were incubated with PAR purified from FhCh-treated PARG-knock down HCT116 cells (10 μM, calculated as the ADP-ribose unit) and DMSO (Negative control, NC) or small molecules for 20 minutes at room temperature. Positive control (PC) only contains PAR in PBS. Samples (1 μl) were spotted onto a nitrocellulose membrane. Then, the membrane was backed for 30 minutes at 60° C. and blocked with TBST buffer (0.15 M NaCl, 0.01 M Tris-HCl at pH 7.4, 0.1% Tween 20) supplemented with 5% milk for 30 minutes at room temperature. After washing with TBST, the membrane was incubated with monoclonal PAR antibody (Trevigen, Inc.) overnight at 4° C. Following standard Western blotting method, the signals were visualized by chemiluminescent detection (FIG. 5B).

[1] = tested on: HCC1937 (BRCA1-mutant breast cancer cells); experiment: Colony formation (cell viability) assay in HCC1937 cells; assay type: cell-based; conditions: HCC1937, 1 μM PARG inhibitor, 14-day culture, colonies >50 cells counted
Description: To examine the efficacy of PG compounds in DNA repair-defective cancer cells, colony formation assays were performed using HCC1937 (BRCA1-mutant breast cancer cells) with or without 1 μM PARG inhibitors (PG002, PG006, PG008, and PG010). COH34 was used as a positive control. HCC1937 (˜1000 cells) were seeded into six-well plates and then treated by various doses of PARG inhibitors. After a 14-day culture, the viable cells were fixed by methanol and stained with crystal violet. The number of colonies (>50 cells for each colony) was calculated. The results were summarized in the histograms (FIG. 7).

T1 sequence (Q86W56 whole entry): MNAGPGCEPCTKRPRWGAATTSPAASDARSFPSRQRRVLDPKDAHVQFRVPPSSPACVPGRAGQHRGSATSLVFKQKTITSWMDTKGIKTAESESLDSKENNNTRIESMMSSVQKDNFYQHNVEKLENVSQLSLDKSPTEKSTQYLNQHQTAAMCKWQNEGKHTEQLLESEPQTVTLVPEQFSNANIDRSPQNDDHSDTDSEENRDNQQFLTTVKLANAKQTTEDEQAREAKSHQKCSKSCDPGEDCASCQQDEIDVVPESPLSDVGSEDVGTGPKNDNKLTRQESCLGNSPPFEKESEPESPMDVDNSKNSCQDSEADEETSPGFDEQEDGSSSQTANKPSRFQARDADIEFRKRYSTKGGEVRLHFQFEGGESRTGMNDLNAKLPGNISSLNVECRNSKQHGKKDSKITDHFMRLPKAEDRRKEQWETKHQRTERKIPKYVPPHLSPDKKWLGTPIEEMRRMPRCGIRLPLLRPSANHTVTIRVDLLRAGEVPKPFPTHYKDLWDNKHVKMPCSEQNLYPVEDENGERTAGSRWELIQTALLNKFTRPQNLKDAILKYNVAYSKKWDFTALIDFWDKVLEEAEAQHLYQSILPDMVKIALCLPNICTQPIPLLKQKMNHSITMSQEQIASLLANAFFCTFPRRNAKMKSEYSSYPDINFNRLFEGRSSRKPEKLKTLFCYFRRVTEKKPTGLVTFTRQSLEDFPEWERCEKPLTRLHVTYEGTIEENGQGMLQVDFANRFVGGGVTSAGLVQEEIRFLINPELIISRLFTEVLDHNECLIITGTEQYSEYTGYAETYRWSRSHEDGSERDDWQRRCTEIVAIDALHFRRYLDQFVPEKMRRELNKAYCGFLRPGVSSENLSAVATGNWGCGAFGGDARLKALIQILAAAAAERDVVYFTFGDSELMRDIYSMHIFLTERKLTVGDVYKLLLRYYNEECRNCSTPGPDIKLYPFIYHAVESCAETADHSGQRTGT

## O=C(N/N=C/c1c(O)ccc2ccccc12)c1ccc(Cl)cn1 [PG002, 5-chloro-N′-[(1E)-(2-hydroxynaphthalen-1-yl)methylidene]pyridine-2-carbohydrazide]
PARG
  inhibitory activity for PARG: good inhibitory activity
[1]
  death of the tumor cells (colony formation): increased death of the tumor cells

## O=C(N/N=C/c1nccc2ccccc12)c1ccc(Cl)cc1 [PG006, 4-chloro-N′-[(1E)-(isoquinolin-1-yl)methylidene]benzohydrazide]
PARG
  inhibitory activity for PARG: good inhibitory activity
[1]
  death of the tumor cells (colony formation): increased death of the tumor cells

## O=C(N/N=C/c1c(O)cnc2ccccc12)c1ccc(Cl)cc1 [PG008, 4-chloro-N-[(1E)-(3-hydroxyquinolin-4-yl)methylidene]benzohydrazide]
PARG
  inhibitory activity for PARG: good inhibitory activity
[1]
  death of the tumor cells (colony formation): increased death of the tumor cells

## O=C(N/N=C/c1c(O)ccc2cccnc12)c1ccc(Cl)cc1 [PG010, 4-chloro-N′-[(1E)-(7-hydroxyquinolin-8-yl)methylidene]benzohydrazide]
PARG
  inhibitory activity for PARG: good inhibitory activity
[1]
  death of the tumor cells (colony formation): increased death of the tumor cells

## O=S(=O)(N/N=C/c1c(O)ccc2ccccc12)c1ccc(Cl)cn1 [PG021, 5-chloro-N′-[(1E)-(2-hydroxynaphthalen-1-yl)methylidene]pyridine-2-sulfonohydrazide]
PARG
  inhibitory activity for PARG: good inhibitory activity
